{"source": "patent US11964960B2", "about": "(Cornell University, priority 2018, dated 2024)", "note": "Structures can show the parent of a compound that is named as a salt.", "data": [{"biological_target": "T1, S1P2 (Homo sapiens, UniProt O95136)", "T1 construct": "Flag; expressed in transfected cells; host or cells: Chinese hamster ovary (CHO) cells, doxycycline-inducible (CHO-S1P2-FL / CHO-S1PR2 FL)", "T1 sequence (O95136 whole entry, species assumed)": "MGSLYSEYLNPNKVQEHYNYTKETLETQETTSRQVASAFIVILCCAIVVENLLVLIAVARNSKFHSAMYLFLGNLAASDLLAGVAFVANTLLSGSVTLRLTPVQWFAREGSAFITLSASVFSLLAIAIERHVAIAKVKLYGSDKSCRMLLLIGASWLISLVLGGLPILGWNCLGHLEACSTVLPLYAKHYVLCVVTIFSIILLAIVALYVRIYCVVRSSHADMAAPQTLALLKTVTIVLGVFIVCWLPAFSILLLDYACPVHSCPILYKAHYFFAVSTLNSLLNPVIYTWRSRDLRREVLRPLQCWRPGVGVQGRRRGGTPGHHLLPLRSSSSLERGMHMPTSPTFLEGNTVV", "assay": "GLISA RhoA activation - antagonist assay", "type": "cell-based", "details": "1 μM compound, CHO-S1P2-FL cells", "experimental": "(§1) GLISA RhoA Activation—Antagonist Assay\n(§2) GLISA assays were performed using RhoA (BK124) activation kit purchased from Cytoskeleton Inc., Denver, CO Doxycycline-inducible Flag-tag S1P2 expressing Chinese hamster ovary (CHO) cells (CHO-S1P2-FL) were seeded in a 6-well plate, 1.5×10^5 cells per well. Cells were stimulated with […] of Doxycycline to induce S1P2 expression in serum free IMDM media with 0.1% BSA/PBS. Following day, cells were stimulated with the compounds described herein (1 nM-10 μM) or 1 μM JTE-013 for 1 hour at 37° C. Following compound incubation, cells were washed with PBS×3 and induced with 100 nM […] for 5 min. […] Protein concentration was examined using GLISA—Precision Red Advanced Protein assay reagent as described in assay manual. Lysates were immobilized on GTP-bound capture plate and GLISA assay was performed based on manufacture recommendations as reported previously.", "units": {"inhibition at 1 µM": "%"}, "values": [{"compound": "Cc1cc(C(=O)C(C)n2cc(Br)ccc2=O)c(C)n1Cc1cccnc1", "note": "(stereo not drawn) [Compound 24, 5-bromo-1-(1-(2,5-dimethyl-1-(pyridin-3-ylmethyl)-1H-pyrrol-3-yl)-1-oxopropan-2-yl)pyridin-2(1H)-one]", "inhibition at 1 µM": 73}, {"compound": "Cc1cc(C(=O)C(C)n2cc(Br)ccc2=O)c(C)n1CC1CC1", "note": "(stereo not drawn) [Example 58, 5-Bromo-1-(1-(1-(cyclopropylmethyl)-2,5-dimethyl-1H-pyrrol-3-yl)-1-oxopropan-2-yl)pyridin-2(1H)-one]", "inhibition at 1 µM": "< 10"}, {"compound": "C#Cc1ccc(=O)n(CC(=O)c2cc(C)n(Cc3ccc(F)cc3)n2)c1", "note": "[Compound 31, 5-ethynyl-1-(2-(1-(4-fluorobenzyl)-5-methyl-1H-pyrazol-3-yl)-2-oxoethyl)pyridin-2(1H)-one]", "inhibition at 1 µM": 69}, {"compound": "Cc1cc(C(=O)C(C)n2cc(Br)ccc2=O)c(C)n1CC1CCCOC1", "note": "(stereo not drawn) [Compound 11, 5-bromo-1-(1-(2,5-dimethyl-1-((tetrahydro-2H-pyran-3-yl)methyl)-1H-pyrrol-3-yl)-1-oxopropan-2-yl)pyridin-2(1H)-one]", "inhibition at 1 µM": 30}, {"compound": "CC#Cc1ccc(=O)n(CC(=O)c2cc(C)n(Cc3ccccc3)c2C)c1", "note": "[Compound 26, 1-(2-(1-benzyl-2,5-dimethyl-1H-pyrrol-3-yl)-2-oxoethyl)-5-(prop-1-yn-1-yl)pyridin-2(1H)-one]", "inhibition at 1 µM": 55}, {"compound": "Cc1cc(C(=O)C(C)n2cc(Br)ccc2=O)c(C)n1Cc1ncccn1", "note": "(stereo not drawn) [Compound 7, 5-bromo-1-(1-(2,5-dimethyl-1-(pyrimidin-2-ylmethyl)-1H-pyrrol-3-yl)-1-oxopropan-2-yl)pyridin-2(1H)-one]", "inhibition at 1 µM": 58}, {"compound": "Cc1nc(Cn2c(C)cc(C(=O)C(C)n3cc(Br)ccc3=O)c2C)no1", "note": "(stereo not drawn) [Compound 5, 5-bromo-1-(1-(2,5-dimethyl-1-((5-methyl-1,2,4-oxadiazol-3-yl)methyl)-1H-pyrrol-3-yl)-1-oxopropan-2-yl)pyridin-2(1H)-one]", "inhibition at 1 µM": 48}, {"compound": "Cc1cc(C(=O)C(C)n2cc(Br)ccc2=O)c(C)n1Cc1ccncc1", "note": "(stereo not drawn) [Compound 25, 5-bromo-1-(1-(2,5-dimethyl-1-(pyridin-4-ylmethyl)-1H-pyrrol-3-yl)-1-oxopropan-2-yl)pyridin-2(1H)-one]", "inhibition at 1 µM": 39}, {"compound": "Cc1cc(C(=O)C(C)n2cc(Br)ccc2=O)c(C)n1Cc1cccc(C#N)c1", "note": "(stereo not drawn) [Compound 15, 3-((3-(2-(5-bromo-2-oxopyridin-1(2H)-yl)propanoyl)-2,5-dimethyl-1H-pyrrol-1-yl)methyl)benzonitrile]", "inhibition at 1 µM": 70}, {"compound": "Cc1cccc(Cn2c(C)cc(C(=O)C(C)n3cc(Br)ccc3=O)c2C)c1", "note": "(stereo not drawn) [Example 63, 5-Bromo-1-(1-(2,5-dimethyl-1-(3-methylbenzyl)-1H-pyrrol-3-yl)-1-oxopropan-2-yl)pyridin-2(1H)-one]", "inhibition at 1 µM": 17}, {"compound": "Cc1cc(C(=O)C(C)n2cc(Br)ccc2=O)c(C)n1Cc1ccc(S(C)(=O)=O)cc1", "note": "(stereo not drawn) [Compound 13, 5-bromo-1-(1-(2,5-dimethyl-1-(4-(methylsulfonyl)benzyl)-1H-pyrrol-3-yl)-1-oxopropan-2-yl)pyridin-2(1H)-one]", "inhibition at 1 µM": 29}, {"compound": "Cc1cc(C(=O)C(C)n2cc(Br)ccc2=O)c(C)n1Cc1ccc(F)cc1", "note": "(stereo not drawn) [Compound 18, 5-bromo-1-(1-(1-(4-fluorobenzyl)-2,5-dimethyl-1H-pyrrol-3-yl)-1-oxopropan-2-yl)pyridin-2(1H)-one]", "inhibition at 1 µM": 76}, {"compound": "Cc1noc(Cn2c(C)cc(C(=O)C(C)n3cc(Br)ccc3=O)c2C)n1", "note": "(stereo not drawn) [Compound 6, 5-bromo-1-(1-(2,5-dimethyl-1-((3-methyl-1,2,4-oxadiazol-5-yl)methyl)-1H-pyrrol-3-yl)-1-oxopropan-2-yl)pyridin-2(1H)-one]", "inhibition at 1 µM": 29}, {"compound": "Cc1cc(C(=O)Cn2cc(C#N)ccc2=O)c(C)n1C(C)c1ccccc1", "note": "(stereo not drawn) [Example 92, 1-(2-(2,5-Dimethyl-1-(1-phenylethyl)-1H-pyrrol-3-yl)-2-oxoethyl)-6-oxo-1,6-dihydropyridine-3-carbonitrile]", "inhibition at 1 µM": 31}, {"compound": "Cc1cc(C(=O)C(C)n2cc(Br)ccc2=O)c(C)n1Cc1ccc(F)c(F)c1", "note": "(stereo not drawn) [Compound 20, 5-bromo-1-(1-(1-(3,4-difluorobenzyl)-2,5-dimethyl-1H-pyrrol-3-yl)-1-oxopropan-2-yl)pyridn-2(1H)-one]", "inhibition at 1 µM": 46}, {"compound": "O=C(Cn1cc(Br)ccc1=O)N1CCC(Cc2ccc(F)cc2)C1", "note": "(stereo not drawn) [Example 66, 5-Bromo-1-(2-(3-(4-fluorobenzyl)pyrrolidin-1-yl)-2-oxoethyl)pyridin-2(1H)-one]", "inhibition at 1 µM": "< 10"}, {"compound": "Cc1cc(C(=O)C(C)n2cc(Br)ccc2=O)c(C)n1Cc1cccc(F)c1", "note": "(stereo not drawn) [Example 62, 5-Bromo-1-(1-(1-(3-fluorobenzyl)-2,5-dimethyl-1H-pyrrol-3-yl)-1-oxopropan-2-yl)pyridin-2(1H)-one]", "inhibition at 1 µM": 11}]}, {"biological_target": "T1, S1P2", "assay": "GLISA RhoA activation - antagonist assay", "type": "cell-based", "details": "CHO-S1P2-FL cells, 1 hour compound incubation, then for 5 min", "experimental": "as §1, §2", "units": {"IC50": "µM"}, "values": [{"compound": "Cc1c(C(=O)Cn2c(F)c(Br)ccc2=O)cnn1Cc1ccccc1", "note": "[Example 71, 1-(2-(1-Benzyl-5-methyl-1H-pyrazol-4-yl)-2-oxoethyl)-5-bromo-6-fluoropyridin-2(1H)-one]", "IC50": 0.022}, {"compound": "Cc1c(C(=O)Cn2cc(Br)ncc2=O)cnn1Cc1ccccc1", "note": "[Example 70, 1-(2-(1-Benzyl-5-methyl-1H-pyrazol-4-yl)-2-oxoethyl)-5-bromopyrazin-2(1H)-one]", "IC50": 0.181}, {"compound": "C#Cc1ccc(=O)n(CC(=O)c2cc(C)n(Cc3ccc(F)cc3)n2)c1", "note": "[Compound 31, 5-ethynyl-1-(2-(1-(4-fluorobenzyl)-5-methyl-1H-pyrazol-3-yl)-2-oxoethyl)pyridin-2(1H)-one]", "IC50": 0.253}, {"compound": "Cc1cc(C(=O)Cn2cc(Cl)ccc2=O)c(C)n1Cc1ccccc1", "note": "[Example 45, 1-(2-(1-Benzyl-2,5-dimethyl-1H-pyrrol-3-yl)-2-oxoethyl)-5-chloropyridin-2(1H)-one]", "IC50": "> 10"}, {"compound": "CC#Cc1ccc(=O)n(CC(=O)c2cc(C)n(Cc3ccccc3)c2C)c1", "note": "[Compound 26, 1-(2-(1-benzyl-2,5-dimethyl-1H-pyrrol-3-yl)-2-oxoethyl)-5-(prop-1-yn-1-yl)pyridin-2(1H)-one]", "IC50": 0.194}, {"compound": "C=Cc1ccc(=O)n(CC(=O)c2cnn(Cc3ccccn3)c2CC)c1", "note": "[Example 80, 1-(2-(5-Ethyl-1-(pyridin-2-ylmethyl)-1H-pyrazol-4-yl)-2-oxoethyl)-5-vinylpyridin-2(1H)-one]", "IC50": 0.097}, {"compound": "C#Cc1ccc(=O)n(C(C)C(=O)c2cnn(Cc3ccccn3)c2C)c1", "note": "(stereo not drawn) [Example 77]", "IC50": 0.1}, {"compound": "Cc1cc(=O)n(CC(=O)c2cc(C)n(Cc3ccccc3)c2C)cc1C#N", "note": "[Example 49, 1-(2-(1-Benzyl-2,5-dimethyl-1H-pyrrol-3-yl)-2-oxoethyl)-4-methyl-6-oxo-1,6-dihydropyridine-3-carbonitrile]", "IC50": "> 10"}, {"compound": "COc1ccc(=O)n(CC(=O)c2cc(C)n(Cc3ccccc3)c2C)c1", "note": "[Example 50, 1-(2-(1-Benzyl-2,5-dimethyl-1H-pyrrol-3-yl)-2-oxoethyl)-5-methoxypyridin-2(1H)-one]", "IC50": "> 10"}, {"compound": "Cc1cc(C(=O)Cn2cc(C#N)ccc2=O)c(C)[nH]1", "note": "[Example 47, 1-(2-(2,5-Dimethyl-1H-pyrrol-3-yl)-2-oxoethyl)-6-oxo-1,6-dihydropyridine-3-carbonitrile]", "IC50": "> 10"}, {"compound": "C#Cc1ccc(=O)n(C(C)C(=O)c2cnn(Cc3ccc(F)cc3F)c2C)n1", "note": "(stereo not drawn) [Example 75, 2-(1-(1-(2,4-Difluorobenzyl)-5-methyl-1H-pyrazol-4-yl)-1-oxopropan-2-yl)-6-ethynylpyridazin-3(2H)-one]", "IC50": 0.058}, {"compound": "C=Cc1ccc(=O)n(CC(=O)c2nnn(Cc3ccccc3)c2C)c1", "note": "[Example 89, 1-(2-(1-Benzyl-5-methyl-1H-1,2,3-triazol-4-yl)-2-oxoethyl)-5-vinylpyridin-2(1H)-one]", "IC50": 0.065}, {"compound": "Cc1cc(C(=O)Cn2c(C)c(C#N)ccc2=O)c(C)n1Cc1ccccc1", "note": "[Example 44, 1-(2-(1-Benzyl-2,5-dimethyl-1H-pyrrol-3-yl)-2-oxoethyl)-2-methyl-6-oxo-1,6-dihydropyridine-3-carbonitrile]", "IC50": "> 10"}, {"compound": "C#Cc1ccc(=O)n(CC(=O)c2nnn(Cc3ccccc3)c2C)c1", "note": "[Example 88, 1-(2-(1-Benzyl-5-methyl-1H-1,2,3-triazol-4-yl)-2-oxoethyl)-5-ethynylpyridin-2(1H)-one]", "IC50": 0.072}, {"compound": "C#Cc1ccc(=O)n(C(C)C(=O)c2cnn(Cc3ccc(F)cc3)c2C)n1", "note": "(stereo not drawn) [Example 74, 6-Ethynyl-2-(1-(1-(4-fluorobenzyl)-5-methyl-1H-pyrazol-4-yl)-1-oxopropan-2-yl)pyridazin-3(2H)-one]", "IC50": 0.046}, {"compound": "C#Cc1ccc(=O)n(Cc2nccc3c2cnn3Cc2ccccc2)c1", "note": "[Compound 131, 1-((1-benzyl-1H-pyrazolo[4,3-c]pyridin-4-yl)methyl)-5-ethynylpyridin-2(1H)one hydrochloride]", "IC50": 0.058}, {"compound": "C=C(F)c1ccc(=O)n(CC(=O)c2cnn(Cc3ccccc3)c2C)c1", "note": "[Example 83]", "IC50": 0.082}, {"compound": "CC(=O)Nc1ccc(=O)n(CC(=O)c2cc(C)n(Cc3ccccc3)c2C)c1", "note": "[Example 54, N-(1-(2-(1-Benzyl-2,5-dimethyl-1H-pyrrol-3-0)-2-oxoethyl)-6-oxo-1,6-dihydropyridin-3-yl)acetamide]", "IC50": "> 10"}, {"compound": "C=Cc1ccc(=O)n(CC(=O)c2c(C)nn(Cc3ccccc3)c2C)c1", "note": "[Example 86, 1-(2-(1-Benzyl-3,5-dimethyl-1H-pyrazol-4-yl)-2-oxoethyl)-5-vinylpyridin-2(1H)-one]", "IC50": 0.092}, {"compound": "C=C(C)c1ccc(=O)n(CC(=O)c2cnn(Cc3ccccc3)c2C)c1", "note": "[Example 81, 1-(2-(1-Benzyl-5-methyl-1H-pyrazol-4-yl)-2-oxoethyl)-5-(prop-1-en-2-yl)pyridin-2(1H)-one]", "IC50": 0.181}, {"compound": "C#Cc1ccc(=O)n(C(C)C(=O)c2cnn(Cc3ccccc3)c2C)n1", "note": "(stereo not drawn) [Example 73, 2-(1-(1-Benzyl-5-methyl-1H-pyrazol-4-yl)-1-oxopropan-2-yl)-6-ethynylpyridazin-3(2H)-one]", "IC50": 0.059}, {"compound": "Cc1cc(C(=O)C(Cc2ccccc2)n2cc(C#N)ccc2=O)c(C)n1Cc1ccccc1", "note": "(stereo not drawn) [Example 51, 1-(1-(1-Benzyl-2,5-dimethyl-1H-pyrrol-3-yl)-1-oxo-3-phenylpropan-2-yl)-6-oxo-1,6-dihydropyridine-3-carbonitrile]", "IC50": "> 10"}]}]}
